Results from patent US12257306B2, “Antiviral prodrugs and nanoformulations thereof” (Board of Regents of the University of Nebraska, priority 2018, dated 2025).

Assays:
HIV-1 = conditions: plasma, cited from earlier work; for 4×PA-IC90: four times protein-adjusted 90% inhibitory concentration
HIV-1ADA = test: Antiretroviral efficacy of prodrugs by HIV reverse transcriptase (RT) activity in MDM; type: cell-based; conditions: MDM treated 8 hours, 0.01-1000 nM, challenged with HIV-1ADA MOI 0.01; FIG. 2A
Method: The DTG prodrugs M3DTG and M4DTG were studied. First, antiretroviral efficacy was determined by measurement of HIV reverse transcriptase (RT) activity. To assess antiretroviral efficacy, monocyte-derived macrophage (MDM) were treated with either M3DTG or M4DTG for 8 hours over a range of concentrations (0.01-1000 nM). Drug was dosed in 0.1% (v/v) DMSO in media. After treatment, cells were washed with PBS to remove excess of free drug and nanoparticles and the cells were cultured with fresh media, with half-media exchanges every other day. The MDM were challenged with HIV-1ADA at a MOI of 0.01 infectious viral particles/cell for up to 30 days. Progeny virion production was measured by RT activity in culture medium (Kalter, et al. (1992) J. Clin. Microbiol., 30(4):993-995).

Row | SMILES | 4×PA-IC90 (HIV-1) [µg/mL] | PA-IC90 (HIV-1; protein-adjusted 90% inhibitory concentration) [µg/mL] | antiretroviral activity (HIV-1 RT activity) (HIV-1ADA)
1 | C[C@H]1CO[C@@H]2Cn3cc(C(=O)NCc4ccc(F)cc4F)c(=O)c(O)c3C(=O)N12 [CAB, cabotegravir] | 0.66 | – | –
2 | C[C@@H]1CCO[C@H]2Cn3cc(C(=O)NCc4ccc(F)cc4F)c(=O)c(O)c3C(=O)N12 [DTG, dolutegravir] | 0.256 | 0.064 | –
3 | C[C@@H]1CCO[C@H]2Cn3cc(C(=O)NCc4ccc(F)cc4F)c(=O)c(OC(=O)CCCCCCCC(=O)Oc4c5n(cc(C(=O)NCc6ccc(F)cc6F)c4=O)C[C@@H]4OCC[C@@H](C)N4C5=O)c3C(=O)N12 [M3DTG] | – | – | significant antiretroviral activity
